From patent publication US11136311B2, “Heteroaromatic derivatives as NIK inhibitors” (Janssen Pharmaceutica NV, priority 2016, dated 2021)
Where two headings read alike, the source gives them in different places.

What was measured:
[1] = system: KMS12-BM cells; assay: Antiproliferative activity on KMS12-BM (NIK WT) multiple myeloma cells (CellTiter-Glo); type: cell-based, human; settings: KMS12-BM (NIK WT) cells, 96 hr, averaged values, read-out: KMS-12 Proliferation inhibition (IC50 (nM))
Experimental: (§1) Determination of antiproliferative activity on JJN-3 (NIK translocated) and KMS12-BM (NIK WT) multiple myeloma cells
(§2) All compounds tested were dissolved in DMSO and further dilutions were made in culture medium. Final DMSO concentration was 0.3% (v/v) in cell proliferation assays. Viability was assessed using CellTiter-Glo cell viability assay kit (Promega). The human JJN-3 and KMS12-BM cells (DSMZ) were cultured in RPMI 1640 medium supplemented with 2 mM L-glutamine, and 10% fetal calf serum (PAA). Cells were routinely kept as suspension cells at 37° C. in a humidified 5% CO2 atmosphere. Cells were passaged at a seeding density of 0.2×10^6/ml twice a week. Cells were seeded in black tissue culture treated 96-well plates (Perkin Elmer). Densities used for plating ranged from 15000 (JJN3) to 20000 (KMS12BM) cells per well in a total volume of 135 μl medium. Drugs and/or solvents were added (15 μl) to a final volume of 150 μl. Following 96 hr of treatment, plates were removed from the incubator and allowed to equilibrate to room temperature for approx 10 min. 75 μl CellTiter-Glo reagent was added to each well that was then covered (Perkin Elmer Topseal) and shaken on plate shaker for 10 min. Luminescence was measured on a HTS Topcount (Perkin Elmer). Within an experiment, the results for each treatment were the mean of 2 replicate wells. For initial screening purposes, compounds were tested using a 9 point dilution curve (serial 1:3 dilutions). For each experiment, controls (containing no drug) and a blank incubation (containing cells read at the time of compound addition) were run in parallel. The blank value was subtracted from all control and sample values. For each sample, the mean value for cell growth (in relative light units) was expressed as a percentage of the mean value for cell growth of the control.

[2] = system: JJN-3 cells; assay: Antiproliferative activity on JJN-3 (NIK translocated) multiple myeloma cells (CellTiter-Glo); type: cell-based, human; settings: JJN-3 (NIK translocated) cells, 96 hr, averaged values, read-out: JJN-3 Proliferation inhibition (IC50 (nM))
Experimental: as §1, §2

[3] = biological target: recombinant human NF-kappaB-inducing kinase (NIK/MAP3K14) (Homo sapiens (Human), UniProt Q99558); assay: Inhibition of auto-phosphorylation of recombinant human NIK/MAP3K14 activity (AlphaScreen); type: biochemical; settings: averaged values over all measurements on all batches
Experimental: Inhibition of auto-phosphorylation of recombinant human NF-kappaB-inducing kinase (NIK/MAP3K14) activity (AlphaScreen®)
NIK/MAP3K14 auto-phosphorylation activity was measured using the AlphaScreen® (αscreen) format (Perkin Elmer). All compounds tested were dissolved in dimethyl sulfoxide (DMSO) and further dilutions were made in assay buffer. Final DMSO concentration was 1% (v/v) in assays. Assay buffer was 50 mM Tris pH 7.5 containing 1 mM EGTA (ethylene glycol tetraacetic acid), 1 mM DTT (dithiothreitol), 0.1 mM Na3VO4, 5 mM MgCl2, 0.01% Tween® 20. Assays were carried out in 384 well Alphaplates (Perkin Elmer). Incubations consisted of compound, 25 microM Adenosine-5′-triphosphate (ATP), and 0.2 nM NIK/MAP3K14. Incubations were initiated by addition of GST-tagged NIK/MAP3K14 enzyme, carried out for 1 h at 25° C. and terminated by addition of stop buffer containing anti-phospho-IKK Ser176/180 antibody. Protein A Acceptor and Glutathione-Donor beads were added before reading using an EnVision® Multilabel Plate Reader (Perkin Elmer). Signal obtained in the wells containing blank samples was subtracted from all other wells and IC50's were determined by fitting a sigmoidal curve to % inhibition of control versus Log10 compound concentration.

Sequence of recombinant human NF-kappaB-inducing kinase (NIK/MAP3K14) (Q99558 whole entry): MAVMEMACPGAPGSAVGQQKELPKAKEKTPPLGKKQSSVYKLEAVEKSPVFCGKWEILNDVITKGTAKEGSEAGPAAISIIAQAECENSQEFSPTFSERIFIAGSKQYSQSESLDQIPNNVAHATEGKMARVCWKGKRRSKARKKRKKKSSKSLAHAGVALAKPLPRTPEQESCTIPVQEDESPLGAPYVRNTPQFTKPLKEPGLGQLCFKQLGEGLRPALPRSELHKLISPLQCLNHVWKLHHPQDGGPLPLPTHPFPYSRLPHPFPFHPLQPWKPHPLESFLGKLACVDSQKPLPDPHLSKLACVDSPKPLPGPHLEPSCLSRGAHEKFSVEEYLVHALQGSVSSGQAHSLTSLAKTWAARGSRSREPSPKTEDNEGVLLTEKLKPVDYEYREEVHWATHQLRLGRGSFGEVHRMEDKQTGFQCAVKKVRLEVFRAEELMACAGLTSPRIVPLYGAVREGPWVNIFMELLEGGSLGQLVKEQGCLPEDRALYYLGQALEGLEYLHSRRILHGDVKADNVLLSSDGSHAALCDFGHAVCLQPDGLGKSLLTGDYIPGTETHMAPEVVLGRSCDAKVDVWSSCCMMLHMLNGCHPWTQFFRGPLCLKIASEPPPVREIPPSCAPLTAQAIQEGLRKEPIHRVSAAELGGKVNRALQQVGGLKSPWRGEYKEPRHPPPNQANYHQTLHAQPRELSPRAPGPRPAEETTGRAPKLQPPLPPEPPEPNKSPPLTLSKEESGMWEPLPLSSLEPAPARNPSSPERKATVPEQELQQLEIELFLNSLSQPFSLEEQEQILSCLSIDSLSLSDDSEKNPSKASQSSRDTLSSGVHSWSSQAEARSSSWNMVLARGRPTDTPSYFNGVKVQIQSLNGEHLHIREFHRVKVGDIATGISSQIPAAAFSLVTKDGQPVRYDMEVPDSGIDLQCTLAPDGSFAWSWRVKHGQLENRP

Row | SMILES | IC50 [1] [nM] | IC50 ([2]; Homo sapiens, JJN-3, 96 h) [nM] | IC50 [3] [nM] | IC50 ([1]; Homo sapiens, KMS-12-BM, 96 h) [nM] | IC50 [2] [nM]
1 | COC(C)Cn1nc(C)cc1Nc1nccc(-c2cc(C#N)c3c(c2)[C@@](C)(CO)CN3)n1 (single isomer, unassigned) [Compound 77] | 1580 | 309 | 13 |  | 
2 | CNC(=O)c1nn(C)cc1Nc1nccc(-c2cc(C#N)c3c(c2)[C@@](C)(CO)CN3)n1 [Compound 53] |  | 851 | 3.5 | ~5010 | 
3 | Cn1ccc(Nc2ncc(F)c(-c3cc(C#N)c4c(c3)[C@@](C)(CO)CN4)n2)n1 [Compound 144] |  | 36 | 2 | 44 | 
4 | Cn1nc(C(=O)NC2CCOCC2)cc1Nc1nccc(-c2cc(C#N)c3c(c2)C(C)(CO)CN3)n1 (stereo not drawn) [Compound 25] |  | 1900 | 8.1 | 1510 | 
5 | Cc1nn(C2CCOCC2)cc1Nc1nccc(-c2cc(C#N)c3c(c2)[C@@](C)(CO)CN3)n1 [Compound 74] |  | 324 | 3 | ~3890 | 
6 | CC1(CO)CNc2c(C#N)cc(-c3ccnc(Nc4cnn(CC(F)F)c4)n3)cc21 (stereo not drawn) [Compound 30] |  | 47 | 3.2 | ~170 | 
7 | CC(C)n1ccc(Nc2nccc(-c3cc(C#N)c4c(c3)[C@](C)(CO)CN4)n2)n1 [Compound 31] |  | 589 | 14 | > 10000 | 
8 | Cn1nccc1Nc1nccc(-c2cc(C#N)c3c(c2)C(C)(CO)CN3)n1 (stereo not drawn) [Compound 2] |  | 141 | 6.9 | 794 | 
9 | Cn1ccc(Nc2nccc(-c3cc(C#N)c4c(c3)[C@@](C)(CO)CN4)n2)n1 [Compound 19] |  | 163 | 2.2 | 2720 | 
10 | COC(C)(C)CCn1nc(C)cc1Nc1nccc(-c2cc(C#N)c3c(c2)[C@@](C)(CO)CN3)n1 [Compound 59] |  | 68 | 5 | 1950 | 
11 | Cn1ccc(Nc2ncnc(-c3cc(C#N)c4c(c3)C(C)(CO)CN4)n2)n1 (stereo not drawn) [Compound 216] |  | 537 | 7.8 | 2630 | 
12 | Cc1cc(Nc2nccc(-c3cc(C#N)c4c(c3)[C@@](C)(CO)CN4)n2)n(CC2CCCCO2)n1 (single isomer, unassigned) [Compound 68] |  |  | 5.3 | > 10000 | 38
13 | CN1CCC(n2nccc2Nc2nccc(-c3cc(C#N)c4c(c3)[C@@](C)(CO)CN4)n2)CC1 [Compound 38] |  | 3980 | 47 | 3890 | 
14 | CC(C)n1ccc(Nc2nccc(-c3cc(C#N)c4c(c3)[C@@](C)(CO)CN4)n2)n1 [Compound 48] |  | 89 | 5.1 | 263 | 
15 | Cc1coc(Nc2nccc(-c3cc(C#N)c4c(c3)[C@@](C)(CO)CN4)n2)n1 [Compound 147] |  | ~436 | 9.6 | ~5010 | 
16 | CC(C)n1nccc1Nc1nccc(-c2cc(C#N)c3c(c2)C(C)(CO)CN3)n1 (stereo not drawn) [Compound 24] |  | 646 | 10 | > 10000 | 

Row | SMILES | IC50 [1] [nM] | IC50 ([2]; Homo sapiens, JJN-3, 96 h) [nM] | IC50 [3] [nM] | IC50 ([1]; Homo sapiens, KMS-12-BM, 96 h) [nM] | IC50 [2] [nM]
17 | CN(CCO)C[C@]1(C)CNc2c(C#N)cc(-c3ccnc(Nc4ccn(C)n4)n3)cc21 [Compound 173] |  | 6030 | 162 | ~6310 | 
18 | Cn1nc(Nc2nccc(-c3cc(C#N)c4c(c3)C(C)(CO)CN4)n2)cc1C(=O)N1CCC(F)(F)CC1 (stereo not drawn) [Compound 22] |  | 2340 | 18 | > 10000 | 
19 | Cc1cc(Nc2nccc(-c3cc(C#N)c4c(c3)[C@@](C)(CO)CN4)n2)n(CC2CCCO2)n1 (single isomer, unassigned) [Compound 52] | > 10000 |  | 6.9 |  | 115
20 | CN(C)C(=O)c1cc(Nc2nccc(-c3cc(C#N)c4c(c3)[C@@](C)(CO)CN4)n2)nn1C [Compound 45] |  | 1320 | 7.6 | 4170 | 
21 | Cn1nc(Nc2nccc(-c3cc(C#N)c4c(c3)[C@@](C)(CO)CN4)n2)cc1Cl [Compound 43] |  | 234 | 2.6 | 933 | 
22 | COCCCn1nccc1Nc1nccc(-c2cc(C#N)c3c(c2)C(C)(CO)CN3)n1 (stereo not drawn) [Compound 27] |  | 389 | 13 | ~4570 | 
23 | Cn1nc(Cl)cc1Nc1nccc(-c2cc(C#N)c3c(c2)[C@@](C)(CO)CN3)n1 [Compound 41] |  | 78 | 2.1 | ~479 | 
24 | Cc1cc(Nc2nccc(-c3cc(C#N)c4c(c3)C(C)(CO)CN4)n2)n(C)n1 (stereo not drawn) [Compound 3] |  | 407 | 4.2 | ~1230 | 
25 | COCCCn1nc(C)cc1Nc1nccc(-c2cc(C#N)c3c(c2)[C@](C)(CO)CN3)n1 [Compound 54] |  | 525 | 11 | > 10000 | 
26 | CC1(CO)CNc2c(C#N)cc(-c3ccnc(Nc4cc[nH]n4)n3)cc21 (stereo not drawn) [Compound 21] |  | 813 | 2.9 | 1020 | 
27 | Cc1cc(Nc2nccc(-c3cc(C#N)c4c(c3)[C@@](C)(CO)CN4)n2)n(CC(=O)N(C2CC2)C2CC2)n1 [Compound 80] |  | 1100 | 3.9 | 6170 | 
28 | Cn1cc(Nc2nccc(-c3cc(C#N)c4c(c3)[C@@](C)(CO)CN4)n2)c(C(F)(F)F)n1 [Compound 64] |  | 240 | 1.9 | 3240 | 
29 | Cn1nc(C2CCOCC2)cc1Nc1nccc(-c2cc(C#N)c3c(c2)[C@@](C)(CO)CN3)n1 [Compound 67] |  | 141 | 1.6 | 912 | 
30 | Cc1nscc1Nc1nccc(-c2cc(C#N)c3c(c2)[C@@](C)(CO)CN3)n1 [Compound 146] |  | 102 | 1.3 | 589 | 
31 | Cc1csc(Nc2nccc(-c3cc(C#N)c4c(c3)[C@@](C)(CO)CN4)n2)n1 [Compound 145] |  | 71 | 1.5 | ~3390 | 
32 | Cc1cc(Nc2nccc(-c3cc(C#N)c4c(c3)[C@@](C)(CO)CN4)n2)n(C2CCS(=O)(=O)C2)n1 (mixture of isomers) [Compound 33] |  | 1260 | 9.1 | ~6170 | 
